Molecules are shown by their SMILES. Activity calls are given as the source filed them. The rule behind the calls is not given here.

In test [1] the test system is HT-22. The experiment in a line: Neuroprotective activity against monosodium glutamate-induced cell death in mouse HT22 cells at 10 uM preincubated for 2 hrs followed by monosodium glutamate addition measured after 24 hrs by phase contrast microscopic analysis. In kind it is functional, cell-based.
The test system of test [2] is HT-22. The test can be described thus: Neuroprotective activity against monosodium glutamate-induced cell death in mouse HT22 cells assessed as cell viability at 10 uM preincubated for 2 hrs followed by monosodium glutamate addition measured after 24 hrs by MTT assay (reference value: 50%). In kind it is functional. The conditions noted are these: read-out: Activity.

Test [3] deals with HT-22. The test can be described thus: Neuroprotective activity against monosodium glutamate-induced cell death in mouse HT22 cells at 5 uM preincubated for 2 hrs followed by monosodium glutamate addition measured after 24 hrs by phase contrast microscopic analysis. In kind it is functional, cell-based.
Test [4] has as its system HT-22. The experiment in a line: Neuroprotective activity against monosodium glutamate-induced cell death in mouse HT22 cells assessed as cell viability at 25 to 50 uM preincubated for 2 hrs followed by monosodium glutamate addition measured after 24 hrs by MTT assay (reference value: 50%). In kind it is functional. Background: Tetrazolium assays rely on reduction of a dye to a coloured formazan, in cell work by metabolically active cells.

For `COc1ccc(CNc2ccccc2C(N)=O)c2nc3cccc(C(N)=O)c3nc12`, the outcome in test [1] was Active. Moreover, in test [2], the viability at 10 µM is 90%. For the same molecule, in test [3], the outcome was inactive.

`COc1ccc(CNc2ccccc2C(N)=O)c2nc3cccc(C(=O)O)c3nc12`: in test [4], the Activity is reported as more than 90%. In addition, the result in test [1] was Active. For the same molecule, the viability at 10 µM in test [2] worked out at 90%. Besides, in test [3], the result was inactive.

The values are drawn from ChEMBL document CHEMBL3627696, “Pontemazines A and B, phenazine derivatives containing a methylamine linkage from Streptomyces sp. UT1123 and their protective effect to HT-22 neuronal cells” (2015).
